Data on 57 compounds can be found in US12421225B2, “Heteroaromatic amide derivative and medicament containing the same” (KAKEN PHARMACEUTICAL CO., LTD., priority 2018, dated 2025).

pIC50: −log10 of the molar value.

Sequence of human Nav1.7 (Q15858 whole entry): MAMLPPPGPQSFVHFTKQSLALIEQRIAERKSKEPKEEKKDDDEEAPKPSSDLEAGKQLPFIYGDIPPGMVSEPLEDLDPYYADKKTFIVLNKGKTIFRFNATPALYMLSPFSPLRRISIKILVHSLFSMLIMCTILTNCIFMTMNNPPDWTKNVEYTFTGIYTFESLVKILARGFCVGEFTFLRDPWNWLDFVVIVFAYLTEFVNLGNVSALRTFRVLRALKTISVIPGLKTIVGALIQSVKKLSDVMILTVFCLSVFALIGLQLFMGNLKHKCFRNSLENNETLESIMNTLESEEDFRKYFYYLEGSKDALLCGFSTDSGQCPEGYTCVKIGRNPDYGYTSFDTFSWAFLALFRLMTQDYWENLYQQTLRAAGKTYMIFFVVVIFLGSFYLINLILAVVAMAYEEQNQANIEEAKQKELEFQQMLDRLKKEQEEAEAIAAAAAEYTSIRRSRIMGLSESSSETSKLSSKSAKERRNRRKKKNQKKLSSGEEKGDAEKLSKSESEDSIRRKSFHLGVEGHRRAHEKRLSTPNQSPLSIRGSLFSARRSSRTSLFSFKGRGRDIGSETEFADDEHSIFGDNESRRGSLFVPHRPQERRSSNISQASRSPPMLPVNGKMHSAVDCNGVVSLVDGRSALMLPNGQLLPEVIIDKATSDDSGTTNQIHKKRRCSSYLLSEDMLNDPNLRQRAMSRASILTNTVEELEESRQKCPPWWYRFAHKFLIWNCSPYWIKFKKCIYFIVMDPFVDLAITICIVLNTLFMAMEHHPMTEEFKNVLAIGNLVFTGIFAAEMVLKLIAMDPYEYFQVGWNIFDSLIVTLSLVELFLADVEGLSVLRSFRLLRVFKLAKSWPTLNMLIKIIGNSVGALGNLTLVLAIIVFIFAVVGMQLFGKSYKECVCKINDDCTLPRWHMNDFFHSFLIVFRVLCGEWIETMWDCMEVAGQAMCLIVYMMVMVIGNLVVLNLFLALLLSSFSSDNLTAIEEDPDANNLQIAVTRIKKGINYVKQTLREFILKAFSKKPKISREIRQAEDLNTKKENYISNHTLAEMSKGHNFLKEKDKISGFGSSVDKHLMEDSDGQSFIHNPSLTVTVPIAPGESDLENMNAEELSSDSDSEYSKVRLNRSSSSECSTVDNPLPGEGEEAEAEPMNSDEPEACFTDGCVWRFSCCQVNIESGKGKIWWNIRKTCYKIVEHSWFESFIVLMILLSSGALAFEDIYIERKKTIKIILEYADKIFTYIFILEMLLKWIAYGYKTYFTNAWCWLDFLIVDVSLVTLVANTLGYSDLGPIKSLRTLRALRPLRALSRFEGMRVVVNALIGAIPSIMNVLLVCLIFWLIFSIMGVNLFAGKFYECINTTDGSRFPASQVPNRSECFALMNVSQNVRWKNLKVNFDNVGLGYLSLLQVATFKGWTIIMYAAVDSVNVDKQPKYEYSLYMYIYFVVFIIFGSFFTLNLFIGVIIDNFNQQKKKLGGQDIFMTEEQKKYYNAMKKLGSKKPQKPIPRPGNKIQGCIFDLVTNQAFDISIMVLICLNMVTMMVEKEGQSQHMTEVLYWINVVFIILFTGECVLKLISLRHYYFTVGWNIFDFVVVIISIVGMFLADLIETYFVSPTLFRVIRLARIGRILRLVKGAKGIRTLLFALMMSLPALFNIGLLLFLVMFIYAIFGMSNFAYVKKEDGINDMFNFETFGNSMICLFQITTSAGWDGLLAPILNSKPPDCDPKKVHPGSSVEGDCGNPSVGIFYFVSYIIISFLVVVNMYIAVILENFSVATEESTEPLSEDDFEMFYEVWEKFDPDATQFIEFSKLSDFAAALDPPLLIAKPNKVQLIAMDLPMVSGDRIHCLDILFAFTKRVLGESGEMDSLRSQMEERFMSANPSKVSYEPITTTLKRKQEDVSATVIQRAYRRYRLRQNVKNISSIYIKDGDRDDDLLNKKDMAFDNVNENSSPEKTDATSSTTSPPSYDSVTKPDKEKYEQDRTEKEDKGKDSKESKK
Sequence of human Nav1.7 (Q07699 19-218 partner): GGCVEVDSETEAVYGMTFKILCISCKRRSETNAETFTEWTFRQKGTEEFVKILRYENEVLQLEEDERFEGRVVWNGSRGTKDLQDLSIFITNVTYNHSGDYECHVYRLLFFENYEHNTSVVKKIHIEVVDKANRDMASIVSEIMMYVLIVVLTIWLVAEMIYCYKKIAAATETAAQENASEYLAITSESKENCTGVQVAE

One experiment addresses human Nav1.7 (Homo sapiens (Human), UniProt Q15858). The experiment in a line: Human Nav1.7 inhibitory activity evaluation (automated patch clamp QPatch16X, HEK293A cells stably expressing human Nav1.7 and human Navβ1). Particulars: HEK293A cells stably expressing human Nav1.7 and human Navβ1, automated patch clamp QPatch16X. The experiment is classed as cell-based. Here is the method: Test Example 1: Human Nav1.7 Inhibitory Activity Evaluation
A cell line in which human Nav1.7 and human Navβ1 subunits were stably expressed in HEK293A cells was used. Dulbecco's Modified Eagle Medium (DMEM) supplemeted with 10% fetal bovine serum, 600 μg/ml geneticin, and 2 μg/ml blasticidin S were used as culture medium under the conditions of 37° C. and 5% CO2 in T175 flasks to carry out culturing. When 60-80% confluence was reached, the cells were detached and a cell suspension of about 0.5-5.0×10^6 cells/mL was prepared. The amount of current through human Nav1.7 was recorded using a fully automatic patch clamp device QPatch16X (Sophion Biosciences) at room temperature. As the extracellular solution, the solution of 145 mM NaCl, 4 mM KCl, 1 mM MgCl2, 2 mM CaCl2, 10 mM Glucose, 10 mM 4-(2-hydroxyethyl)-1-piperazine ethanesulfonic acid (HEPES) at pH 7.4 was used. As the intracellular solution, the solution of 135 mM CsF, ⅕ mM glycol ether diaminetetraacetic acid (EGTA)/CsOH, 10 mM HEPES, 10 mM NaCl at pH 7.3 was used. The test compounds were dissolved in dimethyl sulfoxide (DMSO) and diluted with the extracellular solution to attain the DMSO concentration of 0.1% at the time of assay.
The current response was obtained at a sampling frequency of 25 kHz, and noise was removed with a 3 kHz low-pass filter. The holding potential was −100 mV. Correction of the leakage current was carried out by applying a step pulse of −120 mV before the test pulse. In order to investigate inhibitory action of the test compound, the following test pulse was given: Namely, after depolarizing pulse of −10 mV was applied for 50 milliseconds, it was fixed at −120 mV for 500 milliseconds; a potential at which about 30-40% of the channel was inactivated was maintained for 15 seconds, then fixed again at −120 mV for 100 milliseconds, and finally a −10 mV depolarization pulse was given for 50 milliseconds. Test pulses were given before and after the test compound addition.
The inhibitory activity of the test compound was determined based on the amount of inward current generated by the second depolarization pulse, and the 50% inhibitory concentration (IC50) was calculated from the concentration-response curve.
(Patch clamp records ionic current or voltage across a cell membrane.)
Compound `N#Cc1ccc2c(c1)C[C@@H](NC(=O)c1cc3n(n1)CCC(COCc1cccc(F)c1)O3)CO2` (stereo partly drawn) [Example 104] showed a negative-log IC50 (pIC50) of more than 6.00. On the same count and under the same terms, next, `C[C@H]1CCn2nc(C(=O)N[C@H]3COc4ccc(Br)cc4C3)cc2O1` [Example 88]: more than 6.00; `O=C(NC1COc2cccc(C3CC3)c2C1)c1cn2c(n1)CCC(C(F)(F)F)C2` (stereo not drawn) [Example 10]: more than 5.00.

The experiment is the same for the next values; noted with them: human Nav1.7, automated patch clamp.
As for `O=C(N[C@H]1COc2ccc(C(F)(F)F)cc2C1O)c1cc2n(n1)CC(CCOCC(F)(F)F)O2` (stereo partly drawn) [Example 589], the pIC50 is more than 5.00. Same read-out and setting: the same measure for `CC1(COCC2CC2)CCn2nc(C(=O)N[C@H]3COc4ccc(C#N)cc4C3)cc2O1` (stereo partly drawn) [Example 419]: more than 5.00; for `O=C(N[C@H]1COc2ccc(COCC(F)(F)F)cc2C1)c1cc2n(n1)CCC(CC1CCOCC1)O2` (stereo partly drawn) [Example 655]: more than 6.00; for `O=C(N[C@H]1COc2ccc(C3CC3)cc2C1)c1cc2n(n1)CCC(C(F)F)O2` (stereo partly drawn) [Example 405]: more than 6.00. For the compound `O=C(N[C@H]1COc2ccc(Cl)cc2C1)c1cc2n(n1)CCC(C(F)F)O2` (single isomer, unassigned) [158 (isomer B)], the negative-log IC50 (pIC50) is more than 5.00. On the same count and under the same terms, next, `CCN(CC1Cn2nc(C(=O)N[C@H]3COc4ccc(C#N)cc4C3)cc2O1)CC(F)(F)F` (stereo partly drawn) [Example 452]: more than 5.00; `CC(C)OCCN1CCn2nc(C(=O)N[C@H]3COc4ccc(C(F)(F)F)cc4C3F)cc2C1` (stereo partly drawn) [Example 671]: more than 6.00; `C=Cc1ccc2c(c1)C[C@@H](NC(=O)c1cc3n(n1)CCC(C(F)(F)F)O3)CO2` (stereo partly drawn) [Example 396]: more than 6.00. On the same count and under the same terms, next, `O=C(N[C@H]1COc2ccc(-c3cnc(N4CCC4)nc3)cc2C1)c1cc2n(n1)CCC(C(F)(F)F)O2` (stereo partly drawn) [Example 380]: more than 5.00; `O=C(N[C@H]1COc2ccc(CC(F)F)cc2C1)c1cc2n(n1)CCC(CCOC(F)F)O2` (single isomer, unassigned) [148 (isomer A)]: more than 6.00. Take `N#Cc1ccc2c(c1)C[C@@H](NC(=O)c1cc3n(n1)CCC(Cc1ccc(F)cc1)O3)CO2` (stereo partly drawn) [Example 384]: the pIC50 was more than 6.00. As to `O=C(N[C@H]1COc2ccc(COCC(F)(F)F)cc2C1)c1cc2n(n1)CCC(OCC(F)(F)F)CO2` (stereo partly drawn) [Example 482], the negative-log IC50 (pIC50) was more than 6.00.

For the compound `N#Cc1ccc2c(c1)C(O)C(NC(=O)c1cc3n(n1)CCC(c1ccccc1F)O3)CO2` (stereo not drawn) [Example 573], the negative-log IC50 (pIC50) is more than 5.00. On the same count and under the same terms, the same measure for `O=C(c1cn2c(n1)CCC(c1cccc(N3CC(O)C3)n1)C2)N1CCC(c2ccccc2)C1` (stereo not drawn) [Example 309]: more than 5.00; for `O=C(NC1COc2ccc(F)c(F)c2C1)c1cc2n(n1)CC(CCOCC(F)(F)F)O2` (stereo not drawn) [Example 629]: more than 6.00; for `CN1Cc2nc(C(=O)N3CCC(Oc4cccc(C(F)(F)F)n4)C3)cn2CC1c1cccc(OC(F)(F)F)c1` (stereo not drawn) [Example 335]: more than 5.00.

For the compound `COc1ccc(C2CCn3nc(C(=O)N[C@H]4COc5ccc(Cl)cc5C4)cc3O2)cn1` (stereo partly drawn) [Example 371], the negative-log IC50 (pIC50) was more than 6.00. The same measure, in the same setting: the same measure for `O=C(N[C@H]1COc2ccc(Cl)cc2C1)c1cc2n(n1)CCC(C1CCOC1)O2` (stereo partly drawn) [Example 611]: more than 6.00; for `O=C(N[C@H]1COc2ccc(C(F)(F)F)cc2C1F)c1cc2n(n1)CCN(CC1CCOCC1)C2` (stereo partly drawn) [Example 642]: more than 5.00. `O=C(N[C@H]1COc2ccc(C(F)(F)F)cc2C1F)c1cc2n(n1)CCC(COCCOCC(F)(F)F)O2` (stereo partly drawn) [Example 665] had a pIC50 of more than 6.00.

For `O=C(NC1COc2ccc(F)c(F)c2C1)c1cc2n(n1)CCC(C(F)(F)F)O2` (stereo not drawn) [Example 626], the negative logarithm of the IC50 (pIC50) was more than 5.00. Same read-out and setting: the same measure for `CCc1cccc(-c2c(C(=O)N[C@H]3COc4ccc(C#N)cc4C3)nn3c2COCC3)n1` [Example 516]: more than 5.00; for `CC1(C)CCn2nc(C(=O)N[C@H]3COc4ccc(CCOC(F)(F)F)cc4C3)cc2O1` [Example 403]: more than 6.00; for `CCc1cccc(-c2c(C(=O)N[C@H]3COc4ccc(C(F)(F)F)cc4C3O)nn3c2COCC3)n1` (stereo partly drawn) [Example 581]: more than 6.00. Still for that read-out and setting: next, `CC1(C)CCn2nc(C(=O)N[C@H]3COc4ccc(-c5ccc(C#N)nc5)cc4C3)cc2O1` [Example 179]: more than 5.00; `N#Cc1ccc2c(c1)C(F)[C@@H](NC(=O)c1cc3n(n1)CC(CCOCC1CC1)O3)CO2` (stereo partly drawn) [Example 650]: more than 6.00. Compound `CN1Cc2nc(C(=O)NCCc3c[nH]c4ccccc34)cn2CC1c1ccccc1` (stereo not drawn) [Example 323] showed a pIC50 of more than 5.00. The compound `N#Cc1ccc2c(c1)C[C@@H](NC(=O)c1cc3n(n1)CCC(COCC1(C(F)(F)F)CC1)O3)CO2` (stereo partly drawn) [Example 434] showed a negative logarithm of the IC50 (pIC50) of more than 6.00. Still for that read-out and setting: next, `CC(C)(F)CCC1CCc2nc(C(=O)N[C@H]3COc4ccccc4C3)cn2C1` (stereo partly drawn) [Example 320]: more than 5.00; `O=C(N[C@H]1COc2ccc(C(F)(F)F)cc2C1O)c1cc2n(n1)CC(CCCOCC(F)(F)F)O2` (stereo partly drawn) [Example 591]: more than 6.00; `O=C(N[C@H]1COc2ccc(COCC(F)(F)F)cc2C1)c1cc2n(n1)CCC(C1CCOCC1)O2` (stereo partly drawn) [Example 606]: more than 6.00. The same measure, in the same setting: the same measure for `CC1(COCC2CC2)Cn2nc(C(=O)N[C@H]3COc4ccc(C#N)cc4C3)cc2O1` (stereo partly drawn) [Example 618]: more than 5.00. Same read-out and setting: the same measure for `O=C(N[C@H]1COc2ccc(CC(F)F)cc2C1)c1cc2n(n1)CCC(COCC1(F)CC1)O2` (stereo partly drawn) [Example 567]: more than 6.00; for `O=C(N[C@H]1COc2ccc(C(F)(F)F)cc2C1F)c1cc2n(n1)CCC(COCC(F)(F)F)CO2` (stereo partly drawn) [Example 634]: more than 6.00. Turning to `Cn1cc(-c2ccc3c(c2)C[C@@H](NC(=O)c2cc4n(n2)CC(CCOC2CCC2)O4)CO3)cn1` (stereo partly drawn) [Example 473], the pIC50 was more than 6.00. On to `O=C(N[C@H]1COc2ccc(COCC(F)(F)F)cc2C1)c1cc2n(n1)CCC(C1CCOC1)O2` (stereo partly drawn) [Example 630], for which the pIC50 was more than 6.00. `O=C(N[C@H]1COc2ccc(C(F)(F)F)cc2C1O)c1cc2n(n1)CCC(C(F)F)O2` (single isomer, unassigned) [534 (isomer A)] had a pIC50 of more than 5.00. Same read-out and setting: next, `O=C(N[C@H]1COc2ccc(-c3cnn(CC(F)(F)F)c3)cc2C1)c1cc2n(n1)CCC(COCC1CC1)O2` (stereo partly drawn) [Example 430]: more than 6.00; `O=C(N[C@H]1COc2ccc(C(F)(F)F)cc2C1)c1nn2c(c1-c1cccc(COCC(F)(F)F)n1)COCC2` [Example 520]: more than 6.00; `O=C(N[C@H]1COc2ccc(C(F)(F)F)cc2C1F)c1cc2n(n1)CCN(C1COC1)C2` (stereo partly drawn) [Example 643]: more than 5.00. On the same count and under the same terms, the same measure for `O=C(N[C@H]1COc2ccc(C(F)(F)F)cc2C1OC(F)(F)F)c1cc2n(n1)CCC(C(F)F)O2` (stereo partly drawn) [Example 546]: more than 6.00; for `O=C(N[C@H]1COc2ccc(COCC(F)(F)F)cc2C1)c1cc2n(n1)CCC1(CC1)CO2` [Example 545]: more than 6.00; for `CC(C)C1CCn2nc(C(=O)N[C@H]3COc4ccc(C#N)cc4C3)cc2O1` (stereo partly drawn) [Example 393]: more than 5.00. In the case of `Cc1cccc(-c2c(C(=O)N[C@H]3COc4ccc(C(F)(F)F)cc4C3O)nn3c2COCC3)n1` (stereo partly drawn) [Example 580], the pIC50 was more than 6.00. As for `CC1CCn2nc(C(=O)N[C@H]3COc4ccc(Cl)cc4C3)c(-c3ccccc3)c2O1` (stereo partly drawn) [Example 444], the pIC50 is more than 6.00. The same measure, in the same setting: next, `O=C(NC1COc2ccccc2C1)c1cc2n(n1)CCN(S(=O)(=O)c1ccccc1C(F)(F)F)C2` (stereo not drawn) [Example 511]: more than 5.00; `N#Cc1ccc2c(c1)C[C@@H](NC(=O)c1cc3n(n1)CC(COCCOCC(F)(F)F)O3)CO2` (stereo partly drawn) [Example 659]: more than 5.00. The same measure, in the same setting: the same measure for `N#Cc1ccc2c(c1)C[C@@H](NC(=O)c1cc3n(n1)CCC(CSCC(F)(F)F)O3)CO2` (stereo partly drawn) [Example 424]: more than 5.00; for `O=C(N[C@H]1COc2ccc(C(F)(F)F)cc2C1O)c1cc2n(n1)CC(CCOCC1CC1)O2` (stereo partly drawn) [Example 595]: more than 6.00. On the same count and under the same terms, the same measure for `O=C(N[C@H]1COc2ccc(Cl)cc2C1)c1cc2n(n1)CCC(CC(F)F)O2` (stereo partly drawn) [Example 404]: more than 6.00. `Cn1ccc(-c2ccc3c(c2)C[C@@H](NC(=O)c2cc4n(n2)CC(CCOCC(F)(F)F)O4)CO3)n1` (single isomer, unassigned) [206 (isomer A)] gave a negative logarithm of the IC50 (pIC50) of more than 6.00.

`COc1cc(C2(N3CCn4nc(C(=O)N[C@H]5COc6ccc(C#N)cc6C5)cc4C3)CC2)ccn1` [Example 286] showed a pIC50 of more than 5.00.

`O=C(N[C@H]1COc2ccc(COCC(F)(F)F)cc2C1)c1cc2n(n1)CCC(C1CCCO1)O2` (stereo partly drawn) [Example 651]: the pIC50 was more than 6.00.

`O=C(N[C@H]1COc2ccc(C(F)(F)F)nc2C1)c1cc2n(n1)CCC(c1ccccc1F)O2` (stereo partly drawn) [Example 550] gave a negative logarithm of the IC50 (pIC50) of more than 6.00.

A word on the pIC50: it is −log10 of the IC50, conventionally taken in molar units. High values mean a small IC50, low ones a large IC50.
